# Reference: US20050202032A1, “Use of neglected target tissue antigens in modulation of immune responses” (The Regents of the University of California, priority 1998, published 2005)
# B1: GAD: Mouse GAD65, glutamic acid decarboxylase, β cell autoantigen (protein, UniProt P48320 1-585, looked up)
# Glutamate decarboxylase 2: MASPGSGFWSFGSEDGSADPENPGTARAWCQVAQKFTGGIGNKLCALLYGDSGKPAEGGGSVTSRAATGKVACTCDQKPCNCPKGDVNYAFLHATDLLPACDGERPTLAFLQDVMNILLQYVVKSFDRSTKVIDFHYPNELLQEYNWELADQPQNLEEILTHCQTTLKYAIKTGHPRYFNQLSTGLDMVGLAADWLTSTANTNMFTYEIAPVFVLLEYVTLKKMREIIGWPGGSGDGIFSPGGAISNMYAMLIARYKMFPEVKEKGMAAVPRLIAFTSEHSHFSLKKGAAALGIGTDSVILIKCDERGKMIPSDLERRILEVKQKGFVPFLVSATAGTTVYGAFDPLLAVADICKKYKIWMHVDAAWGGGLLMSRKHKWKLSGVERANSVTWNPHKMMGVPLQCSALLVREEGLMQSCNQMHASYLFQQDKHYDLSYDTGDKALQCGRHVDVFKLWLMWRAKGTTGFEAHIDKCLELAEYLYTIIKNREGYEMVFDGKPQHTNVCFWFVPPSLRTLEDNEERMSRLSKVAPVIKARMMEYGTTMVSYQPLGDKVNFFRMVISNPAATHQDIDFLIEEIERLGQDL
# What was measured:
# [1] = tested on: antigen-specific T cells within islet infiltrates; assay: ELISPOT of single antigen-specific T cells from pancreatic islet infiltrates (Example 11); assay type: cell-based, NOD mice
# Protocol: (§1) ELISPOT analysis. At a specified time, mice received a single i.p. injection of 100 μg β-galactosidase or GAD65 or other specified antigen in 50% IFA. Fourteen days later, splenic T-cells were isolated and the frequency of β-galactosidase and GAD65-specific T-cells secreting IL-4, IL-5 and IFN-γ was determined by using the ELISPOT technique as described (Forsthuber, T., et al., Science, 271:1728, 1996), with the exception that the treating antigen and β-galactosidase (100 μg/ml) were used as antigens, and 11B11 together with biotinylated BVD6-24G2 (PharMingen, San Diego, Calif.) was used for capture and detection of IL-4. The resulting spots were counted manually.
# Monocytes were isolated from islets of 10-week old female NOD mice. 1000, 100 or 10 monocytes were mixed with 1 million irradiated splenic T cells and tested for IFNγ and IL-5 responses to B cell autoantigens, as well as control antigens, by ELISPOT.
# [2] = tested on: diabetic NOD mice with transplanted syngeneic islets; assay: Transplantation of syngeneic islets into diabetic NOD mice (Example 2); assay type: in vivo; conditions: antigen i.p. in IFA to recipient diabetic NOD mice prior to transplantation; FIG. 1
# Protocol: Transplantation of islets. Female NOD mice were monitored for the onset of IDDM, after which the mice were maintained on 1.0 to 1.5 units insulin (Humulin U, Lilly) per day. At the time of IDDM onset, mice were injected with either 100 μg of GAD65, hsp277, insulin B-chain or control β-galactosidase i.p. in 50% IFA. Ten days later, the mice were reinjected. Ten days after the second treatment, 3000 freshly isolated islets from newborn NOD mice were transplanted into the space beneath the kidney capsule, and Humulin administration was discontinued. The mice were reinjected every two weeks. Recurrence of diabetes is defined as two consecutive blood glucose levels of greater than 13 mmol/l.
# Based on the ability of autoantigen treatment to inhibit disease in pre-diabetic NOD mice with (1) we tested whether this treatment could also protect transplanted syngeneic β cells from the established autoimmune responses in diabetic NOD mice. Islets were transplanted into diabetic NOD mice that had been treated with β-galactosidase. […] The results are shown in FIG. 1, wherein data are presented as time post-transplantation at which hyperglycemia recurred. These findings correlate with the extent to which each autoantigen was able to promote Th2 immunity in newly hyperglycemic animals (see Example 3, below).
# [3] = tested on: female NOD mice; assay: IDDM incidence in NOD mice treated at six weeks (Example 6); assay type: in vivo; conditions: 100 μg ip in IFA at six weeks, boosted once 10 days later; FIGS. 6 and 7
# Protocol: IDDM incidence. At specified times, groups of 10 female NOD mice were injected i.p. with 50 μg antigen or control β-galactosidase in 100 μl of 50% IFA. Another control group received 100 μl of 50% IFA alone. Because there may be a requirement for continual antigen presentation, the mice were reinjected every 6 weeks until 40 weeks of age. Urine glucose levels were monitored weekly for diabetes by Tes-tape (Lilly, Indianapolis, Ind.). After we observed abnormal glucose in the urine, blood glucose levels were monitored twice weekly. A recording of two consecutive blood glucose levels of greater than 13 mmol/l was considered as IDDM onset.
# Groups of six weeks old female NOD mice were treated with either the control MSA (MSA 560-574) peptide, or a peptide containing a βCAA target determinant (GADp35, GADp34, HSP 277 or insulin B-chain), or a NTTA peptide #2, 4, 6 or 7 (in each case 100 μg ip in IFA)). The mice were boosted once 10 days later. All mouse groups were injected concurrently and housed in the same SPF room. […] An average of 70% of the mice treated with a βCAA target determinant developed IDDM by 40 weeks in age. Two consecutive blood glucose levels of […] was considered disease onset. N=10 for each group.
# An average of 40% of the NOD mice treated with different NTTAs developed IDDM by 40 weeks in age. […]
# [4] = tested on: splenic T cells of treated NOD mice; assay: ELISPOT of Th1/Th2 responses after neonatal autoantigen treatment (Example 8); assay type: cell-based; conditions: treated neonatally 100 μg i.p. in IFA, tested at 4 weeks in age; FIG. 10
# Protocol: as §1
# The data are represented as the mean number of spot forming colonies per million splenic T cells above background. The variation within, each group was <15%. Experimental and control mice were tested simultaneously (in triplicate) in two separate experiments (n=5/group).
# [5] = tested on: NOD mice; conditions: intraperitoneally in incomplete Freund's adjuvant early in the NOD mouse disease process (ref 1); cited from earlier work
# [6] = tested on: splenic T cells of NOD mice; assay: T cell proliferation: immunogenicity and spontaneous recall responses to candidate NTTA peptides (Example 4); assay type: cell-based; conditions: peptide used as the immunizant; FIG. 4
# Protocol: T-cell proliferation assays. Female NOD mice were injected i.p. at 8 weeks of age with 100 μg antigen, or control β-galactosidase, in 100 μl of 50% IFA. The mice were reinjected 2 weeks later. At 12 weeks of age, splenic T-cells were tested for proliferative responses to GAD65, hsp277, β-galactosidase and the HEL peptide, as previously described.
# Transgenic animal models have shown that neoantigens which are expressed at low levels in peripheral tissues often have little impact on T cell education and elicit strong immune responses after immunization (4-8). Identifying NTTAs that were specifically expressed in the β cells at low levels was therefore preferred. The DNA sequence banks were screened for cDNA sequences isolated from mouse β cell subtraction libraries. Mouse cDNA sequences were selected from both known and unknown β cell cDNAs and from both β-cell specific and ubiquitous antigens, some of which appeared to be expressed only at low levels specifically in β cells. Other cDNAs that were expressed at higher levels in the β cells, or in other tissues were selected by Northern analysis for comparison purposes. From the open reading frames of the candidate cDNAs we synthesized a dozen peptides which contained a consensus NOD class II MHC binding motif (54, 55). We identified 4 peptides (sequences provided above) from 3 different mouse B cell proteins that were immunogenic in NOD mice (FIG. 4).
# The remaining peptides tested were peptide 1, a 15mer from calbindin having the sequence EEFMKTWRKYDTDHS; • peptide 3, also a 15mer from calbindin having the sequence LKDLCEKNKQELDIN; • peptide 5, a 15mer from clone 38 in turn derived from a beta cell specific cDNA library (Neophytou, P. et al Diabetes, 45:127, 1996) having the sequence ILKMDHHCPWVNNCV; and • peptide 8 from islet amyloid polypeptide having the sequence GKRNAAGDPNRESLDFL.
# In addition, using a set of overlapping GAD peptides, two GAD peptides have been identified which are immunogenic in NOD mice (GADp18 and GADp27; sequences provided under ANTIGENS, above) but which are ignored by their spontaneous autoimmune responses (data not shown). […] These conclusions can be used to advantage for the development of human NTTAs as immunotherapeutics for autoimmune disease, and other abnormal inflammatory immune responses.
# [7] = tested on: irradiated young NOD mice receiving T cells from diabetic NOD mice; assay: Adoptive transfer of IDDM (Example 5); assay type: in vivo; conditions: cells from treated mice co-transferred with T cells from diabetic NOD mice
# Protocol: Adoptive transfer of diabetes. At a specified time, NOD mice were injected i.p. with 100 μg GAD65 (or other specified antigen) or control β-galactosidase in 100 μl of 50% IFA and reinjected at 14 weeks of age. Five weeks later, single-cell suspensions of splenic mononuclear cells were prepared from each group, as well as from unmanipulated diabetic NOD mice. Ten million splenic mononuclear cells from the unmanipulated diabetic mice were mixed with an equal number of splenic mononuclear cells from GAD65 β-galactosidase-treated mice and injected intravenously into 5-week-old female NOD mice that had received 500 rad-γ-irradiation. Another control group received […] splenic mononuclear cells obtained only from unmanipulated diabetic mice.
# Splenic T cells from NTTA peptide treated mice were co-transferred with T cells from diabetic NOD mice into irradiated young NOD mice. All of the mice which received cells from mice treated with a control immunogenic mouse serum albumin peptide (MSA 560-574) developed IDDM within 5 weeks. […] Thus, NTTAs are capable of inducing adoptively transferable regulatory responses which can down-regulate pathogenic T cells.
# [8] = tested on: T cell clones from immunized NOD mice; assay: Cytokine secretion of NTTA- and GADp35-reactive T cell clones (Example 9); assay type: cell-based; conditions: ELISPOT and antigen-stimulated culture supernatants
# Protocol: NOD mice were immunized with a NTTA peptide or GADp35 in incomplete Freund's adjuvant (IFA). Two weeks later lymph node and splenic T cells were cultured with antigen, IL-2 and IL-4 together with irradiated NOD splenic cells and T cell clones were generated by limiting dilution. A NTTA 7 and a GADp35-reactive clone were characterized by ELISPOT and analysis of antigen-stimulated culture supernatants. Both clones secreted IL-4, and no IFN-γ in response to the corresponding antigen. Thus, these T cell clones appear to be Th2-type.
# [9] = tested on: splenic T cells of NOD mice; assay: T cell proliferation: immunogenicity and spontaneous recall responses to candidate NTTA peptides (Example 4); assay type: cell-based; conditions: at any stage of NOD mouse development, no immunization
# [10] = 100 islet monocytes mixed with 1 million irradiated splenic T cells
# [11] = 1,000 islet monocytes mixed with 1 million irradiated splenic T cells, 10-week old female NOD mice
Molecule,immunogenicity in NOD mice (proliferative T cell response after immunization) [6],spontaneous proliferative splenic T cell recall responses [9],further results
Insulin B-chain [reference compound],,,"IFNγ responses, number of T cells [1, 10]: 6; IFNγ responses, number of T cells [1, 11]: 50; syngeneic islet graft survival (recurrence of hyperglycemia) [2]: lacked any protective effect; protection from disease / disease incidence [3]: non-significant trend toward protection; Th2 and Th1 responses to the injected autoantigen [4]: both Th2 and Th1 responses; protection from IDDM [5]: highly protective"
"GKRNAAGDPNRESLDFL [peptide 8, from islet amyloid polypeptide]",did not contain determinants,,
"ILKMDHHCPWVNNCV [peptide 5, 15mer from clone 38]",did not contain determinants,,
MSA 560-574: control immunogenic mouse serum albumin peptide 560-574 (KPKATAEQLKTVMDD),,,time by which all recipient mice developed IDDM [7]: ≤ 5 weeks
TQRLANFLVRSSNNL (homo sapiens) [Peptide 7],immunogenic,did not detect,IFN-γ secretion of reactive T cell clone in response to the corresponding antigen [8]: no; IL-4 secretion of reactive T cell clone in response to the corresponding antigen [8]: secreted
PEVKEKGMAAVPRLIAFTSE (homo sapiens) [GADp18],immunogenic,ignored,
LKDLCEKNKQELDIN [peptide 3],did not contain determinants,,
PLQCSALLVREEGLMQSCNQ (homo sapiens) [GADp27],immunogenic,ignored,
NHLRATPVRSGSNPQ (homo sapiens) [Peptide 6],immunogenic,did not detect,
EEFMKTWRKYDTDHS [peptide 1],did not contain determinants,,
ELKNFLKDLLEKANKTVDDT (homo sapiens) [Peptide 2],immunogenic,did not detect,
LIKPDRCHHCSVCDKC (homo sapiens) [Peptide 4],immunogenic,did not detect,
B1,,,"IFNγ responses, number of T cells [1, 10]: 15; IFNγ responses, number of T cells [1, 11]: 123; syngeneic islet graft survival (recurrence of hyperglycemia) [2]: greatly extended syngeneic islet graft survival; Th2 and Th1 responses to the injected autoantigen [4]: both Th2 and Th1 responses; protection from IDDM [5]: highly protective"
